Experimental data published in patent publication US6737383B1, “Herbicidal oxadiazolidines” (priority 1999, dated 2004).

Legend:
pigweed = assay: Test B pre/postemergence pigweed; assay type: in vivo, Amaranthus retroflexus
Method in brief: (§1)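 Test chemicals in a non-phytotoxic solvent mixture with surfactant were sprayed preemergence onto planted seeds and postemergence onto plants 2 to 18 cm tall (1- to 4-leaf stage). After twelve to sixteen days in a greenhouse, injury was visually rated against untreated controls from 0 (no effect) to 10 (complete control).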

soybean = assay: Test B pre/postemergence soybean; assay type: in vivo, Glycine max
Method in brief: as §1

wild oat = assay: Test B pre/postemergence wild oat; assay type: in vivo, Avena fatua
Method in brief: as §1

cocklebur = assay: Test B pre/postemergence cocklebur; assay type: in vivo, Xanthium strumarium
Method in brief: as §1

velvetleaf = assay: Test B pre/postemergence velvetleaf; assay type: in vivo, Abutilon theophrasti
Method in brief: as §1

smallflower flatsedge = assay: Test B flood test smallflower flatsedge; assay type: in vivo, Cyperus difformis
Method in brief: (§2)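 Each value is a visual injury score relative to controls, with 10 meaning complete control and 0 no effect. Evaluation took place twelve to sixteen days after the 2-leaf-stage plants were treated and kept in the greenhouse.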

morningglory = assay: Test B pre/postemergence morningglory; assay type: in vivo, Ipomoea hederacea
Method in brief: as §1

bamyardgrass = assay: Test B flood test barnyardgrass; assay type: in vivo, Echinochloa crus-galli
Method in brief: as §2

bedstraw = assay: Test B pre/postemergence bedstraw; assay type: in vivo, Galium aparine
Method in brief: as §1

surinam grass = assay: Test B pre/postemergence surinam grass; assay type: in vivo, Brachiaria decumbens
Method in brief: as §1

corn = assay: Test B pre/postemergence corn; assay type: in vivo, Zea mays
Method in brief: as §1

rice = assay: Test B flood test rice; assay type: in vivo, Oryza sativa
Method in brief: as §2

sugar beet = assay: Test B pre/postemergence sugar beet; assay type: in vivo, Beta vulgaris
Method in brief: as §1

rape = assay: Test B pre/postemergence rape; assay type: in vivo, Brassica napus
Method in brief: as §1

crabgrass = assay: Test B pre/postemergence crabgrass; assay type: in vivo, Digitaria sanguinalis
Method in brief: as §1

duck salad = assay: Test B flood test duck salad; assay type: in vivo, Heteranthera limosa
Method in brief: as §2

[1] = Postemergence, Rate 62 g/ha, scale 0 to 10, 0 is no effect, 10 is complete control
[2] = Postemergence, Rate 250 g/ha, scale 0 to 10, 0 no effect, 10 complete control
[3] = Preemergence, Rate 62 g/ha, scale 0 to 10 (0 no effect, 10 complete control)
[4] = Preemergence, Rate 125 g/ha, scale 0 to 10 (0 no effect, 10 complete control)
[5] = Preemergence, Rate 250 g/ha, scale of 0 to 10 where 0 is no effect and 10 is complete control
[6] = Preemergence, Rate 500 g/ha, scale 0 (no effect) to 10 (complete control)
[7] = Rate 125 g/ha, Postemergence, scale 0 to 10, 0 no effect, 10 complete control
[8] = Rate 500 g/ha, Postemergence, scale 0 to 10, 0 no effect, 10 complete control
[9] = Rate 125 g/ha, Postemergence section (flood test species), scale 0 to 10, 0 no effect, 10 complete control
[10] = Rate 500 g/ha, listed under Postemergence (flood test species), scale 0 to 10, 0 no effect, 10 complete control
[11] = flood test, listed under Postemergence, Rate 250 g/ha, scale 0 to 10, 0 no effect, 10 complete control

CC(C)N(C(=O)n1oc(=O)n(Cc2ccccc2)c1=O)c1ccc(F)cc1F [Compound 79]
Redroot pigweed plant response rating (pigweed; [1]): 0
Redroot pigweed plant response rating (pigweed; [2]): 3
Redroot pigweed plant response rating (pigweed; [3]): 0
Plant response rating, Redroot pigweed (pigweed; [4]): 4
Plant response rating, Redroot pigweed (pigweed; [5]): 7
Redroot pigweed plant response rating (pigweed; [6]): 10
Redroot pigweed plant response rating (pigweed; [7]): 0
Redroot pigweed plant response rating (pigweed; [8]): 4
Soybean plant response rating (soybean; [1]): 0
Soybean plant response rating (soybean; [2]): 1
Soybean plant response rating (soybean; [3]): 0
Plant response rating, Soybean (soybean; [4]): 0
Plant response rating, Soybean (soybean; [5]): 0
Soybean plant response rating (soybean; [6]): 0
Soybean plant response rating (soybean; [7]): 1
Soybean plant response rating (soybean; [8]): 2
Wild oats plant response rating (wild oat; [1]): 0
Wild oats plant response rating (wild oat; [2]): 0
Wild oats plant response rating (wild oat; [3]): 0
Plant response rating, Wild oats (wild oat; [4]): 0
Plant response rating, Wild oats (wild oat; [5]): 3
Wild oats plant response rating (wild oat; [6]): 4
Wild oats plant response rating (wild oat; [7]): 0
Wild oats plant response rating (wild oat; [8]): 0
Cocklebur plant response rating (cocklebur; [1]): 0
Cocklebur plant response rating (cocklebur; [2]): 2
Cocklebur plant response rating (cocklebur; [3]): 0
Plant response rating, Cocklebur (cocklebur; [4]): 0
Plant response rating, Cocklebur (cocklebur; [5]): 0
Cocklebur plant response rating (cocklebur; [6]): 0
Cocklebur plant response rating (cocklebur; [7]): 0
Cocklebur plant response rating (cocklebur; [8]): 2
Velvetleaf plant response rating (velvetleaf; [1]): 0
Velvetleaf plant response rating (velvetleaf; [2]): 0
Velvetleaf plant response rating (velvetleaf; [3]): 0
Plant response rating, Velvetleaf (velvetleaf; [4]): 0
Plant response rating, Velvetleaf (velvetleaf; [5]): 0
Velvetleaf plant response rating (velvetleaf; [6]): 3
Velvetleaf plant response rating (velvetleaf; [7]): 0
Velvetleaf plant response rating (velvetleaf; [8]): 3
S. Flatsedge plant response rating (smallflower flatsedge; [1]): 0
S. Flatsedge plant response rating (smallflower flatsedge; [9]): 0
S. Flatsedge plant response rating (smallflower flatsedge; [10]): 10
S. Flatsedge plant response rating (smallflower flatsedge; [11]): 4
Morningglory plant response rating (morningglory; [1]): 5
Morningglory plant response rating (morningglory; [2]): 7
Morningglory plant response rating (morningglory; [3]): 0
Plant response rating, Morningglory (morningglory; [4]): 0
Plant response rating, Morningglory (morningglory; [5]): 0
Morningglory plant response rating (morningglory; [6]): 0
Morningglory plant response rating (morningglory; [7]): 5
Morningglory plant response rating (morningglory; [8]): 8
Barnyardgrass plant response rating (bamyardgrass; [1]): 0
Barnyardgrass plant response rating (bamyardgrass; [9]): 0
Barnyardgrass plant response rating (bamyardgrass; [10]): 9
Barnyardgrass plant response rating (bamyardgrass; [11]): 3
Bedstraw plant response rating (bedstraw; [1]): 3
Bedstraw plant response rating (bedstraw; [2]): 7
Bedstraw plant response rating (bedstraw; [3]): 0
Plant response rating, Bedstraw (bedstraw; [4]): 0
Plant response rating, Bedstraw (bedstraw; [5]): 0
Bedstraw plant response rating (bedstraw; [6]): 0
Bedstraw plant response rating (bedstraw; [7]): 3
Bedstraw plant response rating (bedstraw; [8]): 8
B. signalgrass plant response rating (surinam grass; [1]): 0
B. signalgrass plant response rating (surinam grass; [2]): 0
B. signalgrass plant response rating (surinam grass; [3]): 2
Plant response rating, B. signalgrass (surinam grass; [4]): 0
Plant response rating, B. signalgrass (surinam grass; [5]): 3
B. signalgrass plant response rating (surinam grass; [6]): 5
B. signalgrass plant response rating (surinam grass; [7]): 0
B. signalgrass plant response rating (surinam grass; Rate 500 g/ha, Postemergence, scale of 0 to 10 where 0 is no effect and 10 is complete control): 0
Corn plant response rating (corn; [1]): 0
Corn plant response rating (corn; [2]): 0
Corn plant response rating (corn; [3]): 0
Plant response rating, Corn (corn; [4]): 0
Plant response rating, Corn (corn; [5]): 0
Corn plant response rating (corn; [6]): 0
Corn plant response rating (corn; [7]): 0
Corn plant response rating (corn; [8]): 0
Rice plant response rating (rice; [1]): 0
Rice plant response rating (rice; [9]): 0
Rice plant response rating (rice; [10]): 3
Rice plant response rating (rice; [11]): 0
Sugarbeets plant response rating (sugar beet; [1]): 3
Sugarbeets plant response rating (sugar beet; [2]): 4
Sugarbeets plant response rating (sugar beet; [3]): 0
Plant response rating, Sugarbeets (sugar beet; [4]): 1
Plant response rating, Sugarbeets (sugar beet; [5]): 1
Sugarbeets plant response rating (sugar beet; [6]): 2
Sugarbeets plant response rating (sugar beet; [8]): 6
Rape plant response rating (rape; [1]): 0
Rape plant response rating (rape; [2]): 0
Rape plant response rating (rape; [3]): 0
Plant response rating, Rape (rape; [4]): 0
Plant response rating, Rape (rape; [5]): 0
Rape plant response rating (rape; [6]): 0
Rape plant response rating (rape; [7]): 0
Rape plant response rating (rape; [8]): 3
Crabgrass plant response rating (crabgrass; [1]): 3
Crabgrass plant response rating (crabgrass; [2]): 4
Crabgrass plant response rating (crabgrass; [3]): 2
Plant response rating, Crabgrass (crabgrass; [4]): 7
Plant response rating, Crabgrass (crabgrass; [5]): 9
Crabgrass plant response rating (crabgrass; [6]): 10
Crabgrass plant response rating (crabgrass; [7]): 4
Crabgrass plant response rating (crabgrass; [8]): 8
Ducksalad plant response rating (duck salad; [1]): 0
Ducksalad plant response rating (duck salad; [9]): 0
Ducksalad plant response rating (duck salad; [10]): 3
Ducksalad plant response rating (duck salad; [11]): 0
